Columns and labels:
Format in all cases: cell-based
[1] = tested on: MDA-MB-468 cells; test: Cancer cell growth inhibition (DAPI nuclei count), breast cancer line; settings: treated 1 and 3 days after attachment
Procedure: For this purpose, experiments were performed using liver cancer, breast cancer, hematologic cancer, cervical cancer, and prostate cancer cell lines, a murine liver cancer cell line HEPA 1-6 and a breast cancer cell line MDA-MB-468 were cultured in a DMEM medium supplemented with 10% fetal bovine serum (FBS) and 1% penicillin/streptomycin, the other cell lines were cultured in a RPMI1640 medium supplemented with the same additives, and the cell lines were used in the experiment.
To examine the ability of the compound to inhibit the growth of the breast cancer cell line, the compounds was treated at each indicated μM concentration 1 and 3 days after cell attachment, and the control was treated with a 0.1% solvent (DMSO). […] After the cells were additionally rinsed once with PBS, cells stained with DAPI were photographed by Cytation 3, and the resulting images were analyzed with Gen5 software (Biotek, USA). Meanwhile, cells that grew in a floating manner without being attached to the culture plate were treated with a 4% paraformaldehyde solution, reacted at room temperature for 10 minutes to fix the cells, and then photographed in a bright field by Cytation3, and the resulting images were analyzed by Gen5 software (Biotek, USA). […]

[2] = tested on: SNU449 human liver cancer cells; test: Reactivity of M2 variants in SNU449
Procedure: (§1) To examine the ability of the compound to inhibit the growth of the breast cancer cell line, the compounds was treated at each indicated μM concentration 1 and 3 days after cell attachment, and the control was treated with a 0.1% solvent (DMSO). After another two days, the cell lines that were attached to the culture plate and grew were rinsed with 1×PBS and treated with 4% paraformaldehyde at room temperature for 10 minutes to fix the cells. Then, after cells were rinsed twice with PBS, the fixed cells were treated with a 0.5% Triton X-100 solution and reacted at room temperature for 15 minutes, rinsed another three times with PBS, and then treated with a DAPI reagent at 0.5 μg/ml, and reacted at 37° C. for 10 minutes to stain the cell nuclei. After the cells were additionally rinsed once with PBS, cells stained with DAPI were photographed by Cytation 3, and the resulting images were analyzed with Gen5 software (Biotek, USA). Meanwhile, cells that grew in a floating manner without being attached to the culture plate were treated with a 4% paraformaldehyde solution, reacted at room temperature for 10 minutes to fix the cells, and then photographed in a bright field by Cytation3, and the resulting images were analyzed by Gen5 software (Biotek, USA).
(§2) To analyze the ability to inhibit the growth of liver cancer cell lines, 6.6×10^3 HepG2 cells per well, 1×10^3 cells of each of Hep3B, SNU-475, and SNU-449 per well, and 2×10^3 SNU-387 cells per well were aliquoted in a 96-well plate, cultured in the same manner as described above, treated with Compound 2 (M2), Compound 3 (M4), Compound 4 (M21), Compound 5 (M23), and Compound 6 (M25), and then the ability to inhibit the growth of cells was analyzed.

[3] = tested on: SNU-449; test: Cell cycle by flow cytometry, phospho-histone H3 (Ser10) staining; settings: M2 20, 40, 80 μM, BI2536 20 nM
Procedure: Flow cytometry equipment was used to confirm the effect on the cell cycle in the case of treatment with Compound 2 (M2). SNU-449, which is one of the liver cancer cell lines, were treated with Compound 2 (M2) at each of concentrations of 20, 40, and 80 μM after 1 day and 3 days, and were harvested after another 2 days.
Furthermore, it was intended to more specifically stain a cell population that stopped in the metaphase of cell division using a phospho-histone H3 (Ser10) antibody capable of specifically staining only the cells that stopped in the metaphase of cell division. As a positive control, cells were treated with BI2536 known as a PLK1 kinase inhibitor at 20 nM and used to observe cells in the metaphase of cell division and an increase in the G2/M phase.

[4] = tested on: PLK1; test: PLK1 position in the cell (r-tubulin, PLK1, DAPI staining); settings: middle stage of cell division
[5] = tested on: HepG2 human liver cancer cells; test: Reactivity of M2 variants in HepG2
Procedure: as §1, §2

SMILES: Cn1c2nc(=O)[nH]c(=O)c-2nc2ccccc21 [Compound 2, 10-methyl-2H,3H,4H,10H-benzo[g]pteridine-2,4-dione]
- number of cells [1]: the number of cells was remarkably reduced in proportion to the treatment concentration
- number of cancer cells [2]: the number of cancer cells was remarkably reduced in a dose-dependent manner
- proportion of polyploid cells [3]: not increased at all the treated concentrations
- proportion of phospho-histone H3-positive cells ([3]; compared to CT): decreased
- position of PLK1 [4]: difficult for PLK1 to be located in a normal position
- r-tubulin located in the centrosome (staining / position) [4]: weakly stained
- areas of liver cancer cells [5]: remarkably reduced in a dose-dependent manner

— patent US20220033405A1, “PHARMACEUTICAL COMPOSITION FOR PREVENTING OR TREATING CANCER CONTAINING PLK1 INHIBITOR AS ACTIVE INGREDIENT” (NATIONAL CANCER CENTER, priority 2018, published 2022)
